The values that follow come from patent EP2970215B1, “PYRROLIDINE DERIVATIVES, PHARMACEUTICAL COMPOSITIONS CONTAINING THEM, AND THEIR USE IN THERAPY” (AbbVie Deutschland GmbH & Co. KG, priority 2013, dated 2014).

One assay concerns the target T1, human GlyT1c transporter (Homo sapiens, UniProt P48067).
T1 construct: expressed in transfected cells; host or cells: CHO cells (recombinant; line hGlyT1c_5_CHO is named for the uptake assay)
T1 sequence (P48067 1-706): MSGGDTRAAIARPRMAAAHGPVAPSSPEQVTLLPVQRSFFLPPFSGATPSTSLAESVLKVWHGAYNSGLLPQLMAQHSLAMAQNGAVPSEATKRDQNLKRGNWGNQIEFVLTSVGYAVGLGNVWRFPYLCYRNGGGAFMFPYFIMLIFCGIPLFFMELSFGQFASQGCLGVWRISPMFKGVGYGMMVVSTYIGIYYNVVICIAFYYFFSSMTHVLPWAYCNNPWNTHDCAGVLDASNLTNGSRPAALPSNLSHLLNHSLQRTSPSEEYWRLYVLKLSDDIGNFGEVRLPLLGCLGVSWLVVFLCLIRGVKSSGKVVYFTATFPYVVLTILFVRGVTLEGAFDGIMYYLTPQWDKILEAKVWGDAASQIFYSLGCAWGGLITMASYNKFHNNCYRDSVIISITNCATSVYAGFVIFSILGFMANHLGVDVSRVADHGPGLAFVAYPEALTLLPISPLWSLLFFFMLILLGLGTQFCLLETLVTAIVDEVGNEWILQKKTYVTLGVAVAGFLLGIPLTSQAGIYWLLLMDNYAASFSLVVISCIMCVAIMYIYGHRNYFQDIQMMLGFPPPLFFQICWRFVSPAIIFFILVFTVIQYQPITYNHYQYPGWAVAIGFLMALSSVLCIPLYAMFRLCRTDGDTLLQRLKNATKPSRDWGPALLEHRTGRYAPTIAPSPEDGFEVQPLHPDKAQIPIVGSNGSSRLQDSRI
The experiment in a line: Radioligand binding assay using recombinant CHO cell membranes expressing human GlyT1. The note with it: radioligand binding to human GlyT1c transporter-expressing membranes. The text has this: 2. Radioligand binding assays using recombinant CHO cell membranes expressing human GlyT1: […]
For `CCC/C=C/CN[C@H]1CN(S(=O)(=O)c2cn(C)cn2)C[C@@H]1c1ccccc1` [Example 547, (3R,4S)-N-[(2E)-hex-2-en-1-yl]-1-[(1-methyl-1H-imidazol-4-yl)sulfonyl]-4-phenylpyrrolidin-3-amine], the Ki is ≤ 0.1 µM.

Consider `Cn1cnc(S(=O)(=O)N2C[C@@H](COc3ccc(F)cc3)[C@H](c3ccc(F)cc3)C2)c1` (relative stereo) [Example 348, 4-{[Trans-3-[(4-fluorophenoxy)methyl]-4-(4-fluorophenyl)pyrrolidin-1-yl]sulfonyl}-1-methyl-1H-imidazole], for which the Ki was ≤ 0.1 µM.

Turning to `CC(C)COc1cc(N[C@H]2CN(S(=O)(=O)c3cn(C)cn3)C[C@@H]2c2ccccc2)ncn1` [Example 624, N-{(3R,4S)-1-[(1-methyl-1H-imidazol-4-yl)sulfonyl]-4-phenylpyrrolidin-3-yl}-6-(2-methylpropoxy)pyrimidin-4-amine], the Ki is ≤ 1 µM.

Consider `Cn1cnc(S(=O)(=O)N2C[C@@H](C(=O)c3cccc(Cl)c3)[C@H](c3ccc(F)cc3)C2)c1` (relative stereo) [Example 297, (3-chlorophenyl){trans-4-(4-fluorophenyl)-1-[(1-methyl-1H-imidazol-4-yl)sulfonyl]pyrrolidin-3-yl}methanone], for which the inhibition constant (Ki) was ≤ 0.01 µM.

On to `Cn1cnc(S(=O)(=O)N2C[C@@H](Nc3ccc(Cl)c(Cl)c3)[C@H](c3ccc(F)cc3)C2)c1` (relative stereo) [Example 161, trans-N-(3,4-dichlorophenyl)-4-(4-fluorophenyl)-1-[(1-methyl-1H-imidazol-4-yl)sulfonyl]pyrrolidin-3-amine], for which the Ki was ≤ 1 µM.

For `Cn1cnc(S(=O)(=O)N2C[C@@H](NCc3ccccc3C(F)(F)F)[C@H](c3ccc(F)cc3)C2)c1` (relative stereo) [Example 265, trans-4-(4-fluorophenyl)-1-[(1-methyl-1H-imidazol-4-yl)sulfonyl]-N-[2-(trifluoromethyl)benzyl]pyrrolidin-3-amine], the Ki is ≤ 1 µM.

Regarding `Cn1cnc(S(=O)(=O)N2C[C@@H](Nc3cccc(F)c3)[C@H](c3ncccc3F)C2)c1` (relative stereo) [Example 805, Trans-N-(3-fluorophenyl)-4-(3-fluoropyridin-2-yl)-1-[(1-methyl-1H-imidazol-4-yl)sulfonyl]pyrrolidin-3-amine], the Ki is ≤ 1 µM.

Turning to `Cn1cnc(S(=O)(=O)N2CC(Oc3ccccc3)C(c3ccccc3)C2)c1` (stereo not drawn) [Example 277, 1-methyl-4-[(3-phenoxy-4-phenylpyrrolidin-1-yl)sulfonyl]-1H-imidazole], the Ki is ≤ 10 µM.

With `Cn1cnc(S(=O)(=O)N2C[C@@H](NC(=O)c3ccc(C(F)(F)F)c(Cl)c3)[C@H](c3ccccc3)C2)c1` (relative stereo) [Example 61, 3-chloro-N-{trans-1-[(1-methyl-1H-imidazol-4-yl)sulfonyl]-4-phenylpyrrolidin-3-yl}-4-(trifluoromethyl)benzamide], the Ki was ≤ 1 µM.

As for `Cn1cnc(S(=O)(=O)N2C[C@@H](Nc3ccccc3C(F)(F)F)[C@H](c3ccc(F)cc3)C2)c1` (relative stereo) [Example 87, trans-4-(4-fluorophenyl)-1-[(1-methyl-1H-imidazol-4-yl)sulfonyl]-N-[2-(trifluoromethyl)phenyl]pyrrolidin-3-amine], the Ki was ≤ 10 µM.

In the case of `Cn1cnc(S(=O)(=O)N2C[C@@H](Nc3ccc(Cl)c(Cl)c3)[C@H](c3cccc(F)c3)C2)c1` (relative stereo) [Example 192, trans-N-(3,4-dichlorophenyl)-4-(3-fluorophenyl)-1-[(1-methyl-1H-imidazol-4-yl)sulfonyl]pyrrolidin-3-amine], the Ki was ≤ 1 µM.

On to `Cn1cnc(S(=O)(=O)N2C[C@H](Nc3ccc(C#N)c(C(F)(F)F)c3)[C@@H](c3ccc(F)cc3)C2)c1` [Example 639, 4-({(3R,4S)-4-(4-fluorophenyl)-1-[(1-methyl-1H-imidazol-4-yl)sulfonyl]pyrrolidin-3-yl}amino)-2-(trifluoromethyl)benzonitrile], for which the Ki is ≤ 10 µM.

Consider `CC(CCN[C@H]1CN(S(=O)(=O)c2cn(C)cn2)C[C@@H]1c1ccccc1)CC(C)(C)C` (stereo partly drawn) [Example 464, (3R,4S)-1-[(1-methyl-1H-imidazol-4-yl)sulfonyl]-4-phenyl-N-(3,5,5-trimethylhexyl)pyrrolidin-3-amine], for which the Ki is ≤ 1 µM.

As for `CCCNCCO[C@@H]1CN(S(=O)(=O)c2cn(C)cn2)C[C@H]1c1ccc(F)cc1` (relative stereo) [Example 688, N-[2-({Trans-4-(4-fluorophenyl)-1-[(1-methyl-1H-imidazol-4-yl)sulfonyl]pyrrolidin-3-yl}oxy)ethyl]propan-1-amine], the Ki was ≤ 1 µM.

`CC(C)c1csc(CN[C@H]2CN(S(=O)(=O)c3cn(C)cn3)C[C@@H]2c2ccccc2)n1` [Example 556, (3R,4S)-1-[(1-methyl-1H-imidazol-4-yl)sulfonyl]-4-phenyl-N-{[4-(propan-2-yl)-1,3-thiazol-2-yl]methyl}pyrrolidin-3-amine]: the Ki was ≤ 10 µM.

For `Cn1cnc(S(=O)(=O)N2C[C@@H](C(=O)NCc3ccccn3)[C@H](c3ccc(F)cc3)C2)c1` (relative stereo) [Example 634, Trans-4-(4-fluorophenyl)-1-[(1-methyl-1H-imidazol-4-yl)sulfonyl] -N-(pyridin-2-ylmethyl)pyrrolidine-3-carboxamide], the Ki is ≤ 10 µM.

For the molecule `O=C1CCc2cc(S(=O)(=O)N3CC(Nc4ccc(F)c(F)c4)C(c4ccccc4)C3)ccc2N1` (stereo not drawn) [Example 512], the Ki was ≤ 10 µM.

As to `Cn1cnc(S(=O)(=O)N2C[C@H](NCc3c(Cl)cncc3Cl)[C@@H](c3ccccc3)C2)c1` [Example 432, (3R,4S)-N-[(3,5-dichloropyridin-4-yl)methyl]-1-[(1-methyl-1H-imidazol-4-yl)sulfonyl]-4-phenylpyrrolidin-3-amine], the Ki is ≤ 10 µM.

`Cc1cc(N[C@H]2CN(S(=O)(=O)c3cn(C)cn3)C[C@@H]2c2ccc(F)cc2)ccc1F` [Example 747, (3R,4S)-N-(4-fluoro-3-methylphenyl)-4-(4-fluorophenyl)-1-[(1-methyl-1H-imidazol-4-yl)sulfonyl]pyrrolidin-3-amine]: the Ki was ≤ 0.01 µM.

With `Cn1cnc(S(=O)(=O)N2C[C@@H](NCc3ccc(Cl)cc3Cl)[C@H](c3ccccc3)C2)c1` (relative stereo) [Example 280, trans-N-(2,4-dichlorobenzyl)-1-[(1-methyl-1H-imidazol-4-yl)sulfonyl]-4-phenylpyrrolidin-3-amine], the Ki was ≤ 0.01 µM.

As to `CS(=O)(=O)N1C[C@@H](NC(=O)c2cccc(C(F)(F)F)c2Cl)[C@H](c2cc(F)c(F)cc2F)C1` (relative stereo) [Example 4, 2-chloro-N-[trans-1-(methylsulfonyl)-4-(2,4,5-trifluorophenyl)pyrrolidin-3-yl]-3-(trifluoromethyl)benzamide], the Ki was ≥ 10 µM.

With `Cn1cnc(S(=O)(=O)N2CC(Cc3cccc(Cl)c3)C(c3ccc(F)cc3)C2)c1` (stereo not drawn) [Example 182, 4-{[3-(3-chlorobenzyl)-4-(4-fluorophenyl)pyrrolidin-1-yl]sulfonyl}-1-methyl-1H-imidazole], the Ki is ≤ 0.1 µM.

With `CCOCCN[C@H]1CN(S(=O)(=O)c2cn(C)cn2)C[C@@H]1c1ccccc1` [Example 608, (3R,4S)-N-(2-ethoxyethyl)-1-[(1-methyl-1H-imidazol-4-yl)sulfonyl]-4-phenylpyrrolidin-3-amine], the Ki is ≤ 10 µM.

With `Cn1cnc(S(=O)(=O)N2CC(c3ccccc3)C(Cc3cccc(Cl)c3)C2=O)c1` (stereo not drawn) [Example 331, 3-(3-chlorobenzyl)-1-[(1-methyl-1H-imidazol-4-yl)sulfonyl]-4-phenylpyrrolidin-2-one], the Ki is ≤ 1 µM.

`Cn1cnc(S(=O)(=O)N2C[C@@H](Nc3cccc(Cl)c3)[C@H](C3CCCOC3)C2)c1` (relative stereo) [Example 783, trans -N-(3-chlorophenyl)-1-[(1-methyl-1H-imidazol-4-yl)sulfonyl] -4-(tetrahydro-2H-pyran-3 - yl)pyrrolidin-3-amine]: the Ki is ≤ 1 µM.

Staying with this assay, now noted: radioligand binding, recombinant CHO cell membranes expressing human GlyT1c.
For `Cn1cc(S(=O)(=O)N2C[C@@H](NCc3ccc(C(F)(F)F)cc3Cl)[C@H](c3ncccc3F)C2)nn1` (relative stereo) [Example 818, Trans-N-[2-chloro-4-(trifluoromethyl)benzyl]-4-(3-fluoropyridin-2-yl)-1-[(1-methyl-1H-1,2,3-triazol-4-yl)sulfonyl]pyrrolidin-3-amine], the Ki was ≤ 0.01 µM.

Take `Cc1cc(N[C@@H]2CN(S(=O)(=O)c3cn(C)cn3)C[C@H]2C2CCCCO2)ncc1F` (relative stereo) [Example 852, 5-Fluoro-4-methyl-N-[trans-1-[(1-methyl-1H-imidazol-4-yl)sulfonyl]-4-(tetrahydro-2H-pyran-2-yl)pyrrolidin-3-yl]pyridin-2-amine]: the Ki is ≤ 1 µM.
